Experimental data: publication PMC9090415, “Discovery of small molecule inhibitors of Plasmodium falciparum apicoplast DNA polymerase” (Journal of Enzyme Inhibition and Medicinal Chemistry, 2022)

Molecular target: P. falciparum apicoplast DNA polymerase (Pf-apPOL) (Plasmodium falciparum, UniProt Q8ILY1)
Experiment: Fluorescence-based high-throughput DNA polymerase assay (molecular beacon), primary screen and dose-response;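 for % inhibition ApPOL 90': test concentration in µM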;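 for % inhibition apPOL 180': test concentration in µM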
Type: biochemical
Procedure, shortened: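 Single-point screening used 10 µM compound with 20 nM polymerase, 20 nM hairpin substrate and 6 µM dNTPs for 90 min at 25 °C. Confirmatory titrations (2.5–80 µM) followed fluorescence at three times, and IC50 was derived from a fit including a cooperativity term n.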

[1] = primary screen value of the 186 hits; unit not given; 90 min, 10 µM
[2] = supplemental file 2, sheet IC50 nontoxic compounds; Pf-apPOL

P. falciparum apicoplast DNA polymerase (Pf-apPOL), sequence (Q8ILY1 entry or part of it): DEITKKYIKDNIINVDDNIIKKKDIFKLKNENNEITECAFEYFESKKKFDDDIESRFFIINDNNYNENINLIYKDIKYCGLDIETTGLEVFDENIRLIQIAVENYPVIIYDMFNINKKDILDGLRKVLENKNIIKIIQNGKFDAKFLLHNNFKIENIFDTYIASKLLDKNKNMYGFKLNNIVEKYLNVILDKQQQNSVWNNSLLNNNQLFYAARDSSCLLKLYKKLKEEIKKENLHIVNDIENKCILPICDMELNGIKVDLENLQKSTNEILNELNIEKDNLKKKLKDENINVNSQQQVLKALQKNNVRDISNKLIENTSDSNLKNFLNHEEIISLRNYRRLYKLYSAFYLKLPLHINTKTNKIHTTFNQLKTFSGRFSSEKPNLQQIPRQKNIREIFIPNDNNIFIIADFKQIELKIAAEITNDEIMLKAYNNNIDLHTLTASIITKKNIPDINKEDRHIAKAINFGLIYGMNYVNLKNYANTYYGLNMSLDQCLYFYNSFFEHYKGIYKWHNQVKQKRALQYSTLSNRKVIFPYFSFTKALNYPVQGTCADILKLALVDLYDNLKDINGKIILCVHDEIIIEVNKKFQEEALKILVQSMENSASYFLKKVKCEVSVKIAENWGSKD

Compound: CCCCOC(=O)CCCCCN1C(=O)C(=Cc2ccc(OC)cc2)SC1=S [Molecule 75, CCCCOC(=O)CCCCCN1C(=S)SC(=Cc2ccc(cc2)OC)C1=O]
- % inhibition Apo pol 10' (DRC-1; 10'; concentration 2.5): -1.1804%
- % inhibition Apo pol 10' (DRC-1; 10'; concentration 5): 1.705%
- % inhibition Apo pol 10' (DRC-1; 10'; concentration 10): 11.988%
- % inhibition Apo pol 10' (DRC-1; 10'; concentration 20): 12.7699%
- % inhibition Apo pol 10' (DRC-1; 10'; concentration 40): 17.437%
- % inhibition Apo pol 10' (DRC-1; 10'; concentration 80): 85.0535%
- % inhibition Apol 90' (DRC-1; 90'; concentration 2.5): 3.6918%
- % inhibition Apol 90' (DRC-1; 90'; concentration 5): 7.9015%
- % inhibition Apol 90' (DRC-1; 90'; concentration 10): 19.2889%
- % inhibition Apol 90' (DRC-1; 90'; concentration 20): 19.2951%
- % inhibition Apol 90' (DRC-1; 90'; concentration 40): 23.7139%
- % inhibition Apol 90' (DRC-1; 90'; concentration 80): 84.541%
- % inhibition apPOL 180' (DRC-1; 180'; concentration 2.5): 6.465%
- % inhibition apPOL 180' (DRC-1; 180'; concentration 5): 11.5498%
- % inhibition apPOL 180' (DRC-1; 180'; concentration 10): 23.7615%
- % inhibition apPOL 180' (DRC-1; 180'; concentration 20): 23.8231%
- % inhibition apPOL 180' (DRC-1; 180'; concentration 40): 28.3946%
- % inhibition apPOL 180' (DRC-1; 180'; concentration 80): 81.7032%
- % inhibition Apo pol 5' (DRC-2; 5'; concentration 2.5): -2%
- % inhibition Apo pol 5' (DRC-2; 5'; concentration 5): 3%
- % inhibition Apo pol 5' (DRC-2; 5'; concentration 10): 20%
- % inhibition Apo pol 5' (DRC-2; 5'; concentration 20): 30%
- % inhibition Apo pol 5' (DRC-2; 5'; concentration 40): 45%
- % inhibition Apo pol 5' (DRC-2; 5'; concentration 80): 46%
- % inhibition Apol 40' (DRC-2; 40'; concentration 2.5): -0.735%
- % inhibition Apol 40' (DRC-2; 40'; concentration 5): 5%
- % inhibition Apol 40' (DRC-2; 40'; concentration 10): 24%
- % inhibition Apol 40' (DRC-2; 40'; concentration 20): 42%
- % inhibition Apol 40' (DRC-2; 40'; concentration 40): 66%
- % inhibition Apol 40' (DRC-2; 40'; concentration 80): 69%
- % inhibition ApPOL 90' (DRC-2; 90'; concentration 2.5): -1%
- % inhibition ApPOL 90' (DRC-2; 90'; concentration 5): 6.48%
- % inhibition ApPOL 90' (DRC-2; 90'; concentration 10): 25%
- % inhibition ApPOL 90' (DRC-2; 90'; concentration 20): 43%
- % inhibition ApPOL 90' (DRC-2; 90'; concentration 40): 71%
- % inhibition ApPOL 90' (DRC-2; 90'; concentration 80): 74%
- % inhibition apPOL 180' (DRC-2; 180'; concentration 2.5): -5%
- % inhibition apPOL 180' (DRC-2; 180'; concentration 5): 0.541%
- % inhibition apPOL 180' (DRC-2; 180'; concentration 10): 18%
- % inhibition apPOL 180' (DRC-2; 180'; concentration 20): 40%
- % inhibition apPOL 180' (DRC-2; 180'; concentration 40): 76%
- % inhibition apPOL 180' (DRC-2; 180'; concentration 80): 79%
- DNA Pol [1]: 27
- DNA Pol (primary screen value, head "DNA Pol", unit not given; 90 min, 10 µM): 27

Compound: CO/N=C(\C(=O)N[C@@H]1C(=O)N2C(C(=O)O)=C(CSc3nc(=O)c(O)nn3C)CSC12)c1csc(N)n1 (some centres unmarked) [Molecule 83]
- IC50 [2]: 18.7 µM

Compound: Cc1ccc(C(=O)/C=C/C=C/C=C/N(C)C)o1 [Molecule 96]
- IC50 [2]: 4.93 µM

Compound: COc1ccc(C=C2Oc3c(ccc4c3CN(c3ccc5c(c3)OCO5)CO4)C2=O)cc1OC [KU0199426]
- % inhibition Apo pol 10' (DRC-1; 10'; concentration 2.5): 6.7092%
- % inhibition Apo pol 10' (DRC-1; 10'; concentration 5): 10.8011%
- % inhibition Apo pol 10' (DRC-1; 10'; concentration 10): 30.1784%
- % inhibition Apo pol 10' (DRC-1; 10'; concentration 20): 49.962%
- % inhibition Apo pol 10' (DRC-1; 10'; concentration 40): 63.2111%
- % inhibition Apo pol 10' (DRC-1; 10'; concentration 80): 69.0086%
- % inhibition Apol 90' (DRC-1; 90'; concentration 2.5): 9.888%
- % inhibition Apol 90' (DRC-1; 90'; concentration 5): 17.5134%
- % inhibition Apol 90' (DRC-1; 90'; concentration 10): 37.0525%
- % inhibition Apol 90' (DRC-1; 90'; concentration 20): 55.1818%
- % inhibition Apol 90' (DRC-1; 90'; concentration 40): 69.2799%
- % inhibition Apol 90' (DRC-1; 90'; concentration 80): 72.5355%
- % inhibition apPOL 180' (DRC-1; 180'; concentration 2.5): 14.753%
- % inhibition apPOL 180' (DRC-1; 180'; concentration 5): 23.9693%
- % inhibition apPOL 180' (DRC-1; 180'; concentration 10): 43.333%
- % inhibition apPOL 180' (DRC-1; 180'; concentration 20): 61.4424%
- % inhibition apPOL 180' (DRC-1; 180'; concentration 40): 79.6981%
- % inhibition apPOL 180' (DRC-1; 180'; concentration 80): 86.1468%
- % inhibition Apo pol 5' (DRC-2; 5'; concentration 2.5): 6.46%
- % inhibition Apo pol 5' (DRC-2; 5'; concentration 5): 7.39%
- % inhibition Apo pol 5' (DRC-2; 5'; concentration 10): 27%
- % inhibition Apo pol 5' (DRC-2; 5'; concentration 20): 45%
- % inhibition Apo pol 5' (DRC-2; 5'; concentration 40): 42%
- % inhibition Apo pol 5' (DRC-2; 5'; concentration 80): 45%
- % inhibition Apol 40' (DRC-2; 40'; concentration 2.5): 6%
- % inhibition Apol 40' (DRC-2; 40'; concentration 5): -2.71%
- % inhibition Apol 40' (DRC-2; 40'; concentration 10): 30%
- % inhibition Apol 40' (DRC-2; 40'; concentration 20): 63%
- % inhibition Apol 40' (DRC-2; 40'; concentration 40): 43%
- % inhibition Apol 40' (DRC-2; 40'; concentration 80): 44%
- % inhibition ApPOL 90' (DRC-2; 90'; concentration 2.5): 4.67%
- % inhibition ApPOL 90' (DRC-2; 90'; concentration 5): -12%
- % inhibition ApPOL 90' (DRC-2; 90'; concentration 10): 27%
- % inhibition ApPOL 90' (DRC-2; 90'; concentration 20): 69%
- % inhibition ApPOL 90' (DRC-2; 90'; concentration 40): 41%
- % inhibition ApPOL 90' (DRC-2; 90'; concentration 80): 43%
- % inhibition apPOL 180' (DRC-2; 180'; concentration 2.5): -0.788%
- % inhibition apPOL 180' (DRC-2; 180'; concentration 5): -86%
- % inhibition apPOL 180' (DRC-2; 180'; concentration 10): 16%
- % inhibition apPOL 180' (DRC-2; 180'; concentration 20): 76%
- % inhibition apPOL 180' (DRC-2; 180'; concentration 40): 34%
- % inhibition apPOL 180' (DRC-2; 180'; concentration 80): 39%
- % inhibition Apo pol 5' (conc. 10; 5'; DRC-2): 27%
- % inhibition ApPOL 90' (conc. 10; 90'; DRC-2): 27%
- % inhibition Apo pol 5' (conc. 20; 5'; DRC-2): 45%
- % inhibition Apol 40' (conc. 40; 40'; DRC-2): 43%
- % inhibition Apo pol 5' (conc. 80; 5'; DRC-2): 45%
- % inhibition ApPOL 90' (conc. 80; 90'; DRC-2): 43%
- DNA Pol (primary screen value by plate and well; 90 min, 10 µM): 28
- DNA Pol [1]: 28

Compound: O=C(O)C(=O)Nc1nc(-c2ccc3c(c2)OCCO3)cs1 [Molecule 82, OC(=O)C(=O)Nc1scc(n1)c1ccc2c(c1)OCCO2]
- DNA Pol (186 hits, value of the hit list (primary screen); unit not given; 90 min, 10 µM): 43
- % inhibition Apo pol 10' (DRC-1; 10'; concentration 2.5): 23.4738%
- % inhibition Apo pol 10' (DRC-1; 10'; concentration 5): 27.4589%
- % inhibition Apo pol 10' (DRC-1; 10'; concentration 10): 36.2592%
- % inhibition Apo pol 10' (DRC-1; 10'; concentration 20): 39.5068%
- % inhibition Apo pol 10' (DRC-1; 10'; concentration 40): 47.7699%
- % inhibition Apo pol 10' (DRC-1; 10'; concentration 80): 63.5129%
- % inhibition Apol 90' (DRC-1; 90'; concentration 2.5): 8.772%
- % inhibition Apol 90' (DRC-1; 90'; concentration 5): 11.5991%
- % inhibition Apol 90' (DRC-1; 90'; concentration 10): 21.2379%
- % inhibition Apol 90' (DRC-1; 90'; concentration 20): 24.9603%
- % inhibition Apol 90' (DRC-1; 90'; concentration 40): 33.8146%
- % inhibition Apol 90' (DRC-1; 90'; concentration 80): 46.367%
- % inhibition apPOL 180' (DRC-1; 180'; concentration 2.5): 0.4032%
- % inhibition apPOL 180' (DRC-1; 180'; concentration 5): 2.14%
- % inhibition apPOL 180' (DRC-1; 180'; concentration 10): 10.4775%
- % inhibition apPOL 180' (DRC-1; 180'; concentration 20): 13.4628%
- % inhibition apPOL 180' (DRC-1; 180'; concentration 40): 21.1866%
- % inhibition apPOL 180' (DRC-1; 180'; concentration 80): 32.4786%
- % inhibition Apo pol 5' (DRC-2, 5', concentration 2.5): 23%
- % inhibition Apo pol 5' (DRC-2, 5', concentration 5): 17%
- % inhibition Apo pol 5' (DRC-2, 5', concentration 10): 25%
- % inhibition Apo pol 5' (DRC-2, 5', concentration 20): 30%
- % inhibition Apo pol 5' (DRC-2, 5', concentration 40): 34%
- % inhibition Apo pol 5' (DRC-2, 5', concentration 80): 46%
- % inhibition Apol 40' (DRC-2, 40', concentration 2.5): 13%
- % inhibition Apol 40' (DRC-2, 40', concentration 5): 15%
- % inhibition Apol 40' (DRC-2, 40', concentration 10): 24%
- % inhibition Apol 40' (DRC-2, 40', concentration 20): 28%
- % inhibition Apol 40' (DRC-2, 40', concentration 40): 37%
- % inhibition Apol 40' (DRC-2, 40', concentration 80): 46%
- % inhibition ApPOL 90' (DRC-2, 90', concentration 2.5): 8%
- % inhibition ApPOL 90' (DRC-2, 90', concentration 5): 14%
- % inhibition ApPOL 90' (DRC-2, 90', concentration 10): 23%
- % inhibition ApPOL 90' (DRC-2, 90', concentration 20): 26%
- % inhibition ApPOL 90' (DRC-2, 90', concentration 40): 34%
- % inhibition ApPOL 90' (DRC-2, 90', concentration 80): 43%
- % inhibition apPOL 180' (DRC-2, 180', concentration 2.5): 0.181%
- % inhibition apPOL 180' (DRC-2, 180', concentration 5): 9%
- % inhibition apPOL 180' (DRC-2, 180', concentration 10): 15%
- % inhibition apPOL 180' (DRC-2, 180', concentration 20): 18%
- % inhibition apPOL 180' (DRC-2, 180', concentration 40): 25%
- % inhibition apPOL 180' (DRC-2, 180', concentration 80): 34%
- % inhibition Apo pol 5' (DRC-2; 5'; concentration 2.5): 23%
- % inhibition Apo pol 5' (DRC-2; 5'; concentration 10): 25%
- % inhibition Apo pol 5' (DRC-2; 5'; concentration 40): 34%
- % inhibition Apo pol 5' (DRC-2; 5'; concentration 80): 46%
- % inhibition Apol 40' (DRC-2; 40'; concentration 5): 15%
- % inhibition Apol 40' (DRC-2; 40'; concentration 80): 46%
- % inhibition ApPOL 90' (DRC-2; 90'; concentration 10): 23%
- % inhibition ApPOL 90' (DRC-2; 90'; concentration 40): 34%
- % inhibition apPOL 180' (DRC-2; 180'; concentration 10): 15%
- % inhibition apPOL 180' (DRC-2; 180'; concentration 40): 25%
- % inhibition apPOL 180' (DRC-2; 180'; concentration 80): 34%
- DNA Pol (primary screen value, 'DNA Pol' only; 90 min, 10 µM): 43

Compound: CCCCCc1c2c(cc(O)c1C(=O)O)OC(=O)c1c(cc(OC)cc1C(=O)CCCC)O2 [Molecule 24]
- IC50 [2]: 9.31 µM
